Test results from US10919869B2, “Thiazole derivative and applications” (EAST CHINA UNIVERSITY OF SCIENCE AND TECHNOLOGY, priority 2016, dated 2021).
Read-outs that look alike come from different tables or passages of the source.

Columns and labels:
[1] = target: hsDHODH (Homo sapiens (Human), UniProt Q02127); assay: Activity test at enzyme level: DHODH inhibition, DCIP absorbance at 600 nm; type: biochemical
Method: Culture and Purification of hsDHODH Protein
The correctly sequenced recombinant plasmid pET-19b-DHODH was transformed into competent E. coli BL21 (DE3), and cultured on LB plate containing ampicillin. Colonies were randomly selected, inoculated into LB medium containing […], and incubate overnight at 37° C., 230 rpm. The cells were inoculated at a ratio of 1:200 in 500 mL of LB medium containing […] and expanded at 37° C., 230 rpm. When the OD value of the cells reached 0.8-1, IPTG was added into the medium to a final concentration of IPDG of 0.5 mM, and expression was induced overnight at 25° C. The induced cells were collected by centrifugation at […], 4° C., washed with deionized water, and centrifuged again to collect the bacterial pellet, which was stored at −80° C.
Purification of protein: cells were re-suspended in lysis liquid containing 50 mM HEPES (pH 8.0), 0.15 M NaCl, 10 mM imidazole, 10% glycerol, 0.1% Triton X-100, and a small amount of soy protease inhibitor added. After re-suspended and mixed homogeneously, cells were ultrasonically disrupted. The disruption solution was centrifuged for 30 min, and the supernatant and precipitate were taken for protein electrophoresis to determine the form of protein. The supernatant was loaded onto a Ni-NTA column, and the pass-through liquid was collected, and then the resin was washed for 3-4 times with a lysis liquid containing 20 mM imidazole, and finally eluted with a lysis liquid containing 300 mM imidazole. After elution, protein solution was collected. 10 μL of the above protein sample was taken for SDS-PAGE electrophoresis to determine the content of target protein. Finally, the eluted protein solution is dialyzed in the dialysis liquid to remove imidazole, thereby obtaining a pure protein.
Method for Testing Activities of Compounds at Enzyme Level
Principles of activity test at enzyme level: firstly, dihydroorotate (DHO) is oxidatively dehydrogenated by DHODH to form orotic acid (Orotate, OA), accompanied by reduction of Flavin mononucleotide (FMN) into reduced flavin mononucleotide (FMNH2) by accepting 2H+ and 2e−, then coenzyme Q (CoQ) as hydrogen acceptor accepting electron and proton from FMNH2 is reduced into reduced coenzyme Q (CoQH2), reduced coenzyme Q transfers electrons to a chromogenic substrate, […] (DCIP), and finally DCIP was reduced. […] The degree to which the substrate DHO is oxidized can be judged based on the degree of decrease in absorbance. The degree of oxidation of the substrate DHO per unit time is the initial rate of the enzymatic reaction. Upon addition of a inhibitor, the initial rate of the enzymatic reaction is reduced.
Substrate DHO was added to start the reaction with a DHO final concentration of 500 μM. The absorbance was read at 600 nm using a BioTek microplate reader and read every 30 s for 6 min. […] For calculating IC50 of a compound, Origin 8.0 was used to test the inhibition rate at least 8 concentrations.

[2] = test system: CIA model rats; assay: Pharmacodynamic evaluation on rheumatoid arthritis model (type II collagen-induced arthritis, CIA); type: in vivo, Wistar rat; conditions: CIA Wistar rats; for degree of joint swelling: FIG. 2B; for gain of body weight: intraperitoneal injection, FIG. 2A
Method: The animal model used in this experiment was a type II collagen-induced arthritis animal model (CIA) established by using Wistar rat. On the 0 and 7th day of the experiment, rats were subcutaneously injected with a mixed solution of Bovine II Collagen (CII) and Incomplete Freund's Adjuvant (IFA) to establish a rat model of arthritis.
In the pharmacodynamic test of Compound 1, Compound 1 and the positive drug, methotrexate were dissolved in a solvent system consisting of dimethyl sulfoxide (DMSO), polyethylene glycol 400 (PEG 400) and physiological saline at a volume ratio of 1:10:9.
During the administration to the rats (day 0 to 27 of the experiment), the body weight of a rat was weighed every three days, and the growth was observed. After the joints of the rat began to swell, the degree of joint swelling was scored every two days.
Because the incidence of inflammation in fore paw is low and the hind paws are more prone to swelling and the degree of swelling is more serious, the sum of the scores of two hind paws is used to evaluate the incidence of arthritis in rats. The maximum sum of score is 8 points.
In this experiment, Wistar rats were used to establish a CIA animal model. Joints were taken on the 28th day for subsequent fixation, paraffin embedding, section, staining and histopathological observation. The experiment results are shown as follows: During the experiment, the weight of rats in the control group continued to increase.

[3] = pharmaceutically acceptable esters (prodrugs of A and B series), hsDHODH enzyme test, read-out: IC50

Chain of hsDHODH (Q02127 whole entry): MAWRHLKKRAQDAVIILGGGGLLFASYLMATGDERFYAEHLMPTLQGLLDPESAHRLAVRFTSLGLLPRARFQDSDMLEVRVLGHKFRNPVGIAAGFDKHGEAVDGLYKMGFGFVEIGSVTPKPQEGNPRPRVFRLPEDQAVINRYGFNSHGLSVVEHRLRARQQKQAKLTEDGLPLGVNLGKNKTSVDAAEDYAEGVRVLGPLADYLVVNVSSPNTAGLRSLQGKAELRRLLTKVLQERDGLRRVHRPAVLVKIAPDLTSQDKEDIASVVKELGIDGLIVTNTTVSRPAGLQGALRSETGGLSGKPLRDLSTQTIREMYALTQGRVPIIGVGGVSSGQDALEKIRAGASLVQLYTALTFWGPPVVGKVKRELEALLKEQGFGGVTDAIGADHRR

SMILES	IC50 [1, 3] [µM]	other results
CN(/N=C/c1ccccc1C(=O)O)c1nc(-c2ccccc2Cl)cs1 [Compound 1, (E)-4-(2-chlorophenyl)-2-[1-methyl-2-(2-carboxybenzylidene)hydrazino]thiazole]	–	IC50 ([1]; purified DHODH 10 nM, DHO 500 μM, CoQ 100 μM, DCIP 120 μM, read-out: IC50 (μM) hsDHODH): 0.0097 ± 0.0001 µM; degree of joint swelling ([2]; 5 mg/kg intraperitoneal, compared with model group): significantly reduced; degree of joint swelling ([2]; 30 mg/kg intraperitoneal, compared with model group): more significantly reduced; gain of body weight ([2]; compared with model group): improve the condition of the rats and the slow gain of body weight; histopathological features of joint tissue (HE staining) ([2]; joints taken on day 28, FIG. 3): significantly alleviated; synovial hyperplasia and inflammatory cell infiltration ([2]; tissue sections, compared with model group): greatly improved
CCOC(=O)c1ccccc1/C=N/Nc1nc(-c2ccccc2Cl)cs1 [Compound A1, (E)-4-(2-chlorophenyl)-2-(2-ethoxyformylbenzylidenehydrazino)thiazole]	2.34 ± 0.0468	–
CCCOC(=O)c1ccccc1/C=N/Nc1nc(-c2ccccc2Cl)cs1 [Compound A2, (E)-4-(2-chlorophenyl)-2-(2-propoxyformylbenzylidenehydrazino)thiazole]	1.4 ± 0.0661	–
CC(C)OC(=O)c1ccccc1/C=N/Nc1nc(-c2ccccc2Cl)cs1 [Compound A3, (E)-4-(2-chlorophenyl)-2-(2-isopropoxyformylbenzylidenehydrazino)thiazole]	1.86 ± 0.0214	–
CCCCOC(=O)c1ccccc1/C=N/Nc1nc(-c2ccccc2Cl)cs1 [Compound A4, (E)-4-(2-chlorophenyl)-2-(2-butoxyformylbenzylidenehydrazino)thiazole]	3.53 ± 0.148	–
CCC(C)OC(=O)c1ccccc1/C=N/Nc1nc(-c2ccccc2Cl)cs1 (centres unmarked) [Compound A5, (E)-4-(2-chlorophenyl)-2-(2-(2-butoxy)formylbenzylidenehydrazino)thiazole]	4.651 ± 0.0264	–
CCCCCOC(=O)c1ccccc1/C=N/Nc1nc(-c2ccccc2Cl)cs1 [Compound A6, (E)-4-(2-chlorophenyl)-2-(2-pentyloxyformylbenzylidenehydrazino)thiazole]	> 50	–
CCCCCCOC(=O)c1ccccc1/C=N/Nc1nc(-c2ccccc2Cl)cs1 [Compound A7, (E)-4-(2-chlorophenyl)-2-(2-hexyloxyformylbenzylidenehydrazino)thiazole]	> 50	–
O=C(OC1CCCCC1)c1ccccc1/C=N/Nc1nc(-c2ccccc2Cl)cs1 [Compound A8, (E)-4-(2-chlorophenyl)-2-(2-cyclohexyloxyformylbenzylidenehydrazino)thiazole]	> 50	–
CC(C)(C)C(=O)OCOC(=O)c1ccccc1/C=N/Nc1nc(-c2ccccc2Cl)cs1 [Compound A9, (Pivaloyloxy)methyl (E)-2-((2-(4-(2-chlorophenyl)thiazol-2-yl)hydrazono)methyl)benzoate]	> 50	–
CC(C)OC(=O)OCOC(=O)c1ccccc1/C=N/Nc1nc(-c2ccccc2Cl)cs1 [Compound A10, ((isopropoxycarbonyl)oxy)methyl (E)-2-((2-(4-(2-chlorophenyl)thiazol-2-yl)hydrazono)methyl)benzoate]	> 50	–
O=C(OCc1ccccc1)c1ccccc1/C=N/Nc1nc(-c2ccccc2Cl)cs1 [Compound A11, (E)-4-(2-chlorophenyl)-2-(2-benzyloxyformylbenzylidenehydrazino)thiazole]	> 50	–
CN(C)C(=O)c1ccccc1/C=N/Nc1nc(-c2ccccc2Cl)cs1 [Compound A13, (E)-4-(2-chlorophenyl)-2-((N,N-Dimethyl)formylbenzylidenehydrazino)thiazole]	> 50	–
CCOC(=O)c1ccccc1/C=N/N(C)c1nc(-c2ccccc2Cl)cs1 [Compound B1, (E)-4-(2-chlorophenyl)-2-[1-methyl-2-(2-ethoxyformylbenzylidene)hydrazino]thiazole]	2.79 ± 0.0465	–
CCCOC(=O)c1ccccc1/C=N/N(C)c1nc(-c2ccccc2Cl)cs1 [Compound B2, (E)-4-(2-chlorophenyl)-2-[1-methyl-2-(2-propoxyformylbenzylidene)hydrazino]thiazole]	1.96 ± 0.111	–
CCCCOC(=O)c1ccccc1/C=N/N(C)c1nc(-c2ccccc2Cl)cs1 [Compound B4, (E)-4-(2-chlorophenyl)-2-[1-methyl-2-(2-butoxyformylbenzylidene)hydrazino]thiazole]	> 50	–
CCC(C)OC(=O)c1ccccc1/C=N/N(C)c1nc(-c2ccccc2Cl)cs1 (centres unmarked) [Compound B5, (E)-4-(2-chlorophenyl)-2-[1-methyl-2-(2-(2-butoxy)formylbenzylidene)hydrazino]thiazole]	> 50	–
CCCCCCOC(=O)c1ccccc1/C=N/N(C)c1nc(-c2ccccc2Cl)cs1 [Compound B7, (E)-4-(2-chlorophenyl)-2-[1-methyl-2-(2-hexyloxyformylbenzylidene)hydrazino]thiazole]	> 50	–
CN(/N=C/c1ccccc1C(=O)OC1CCCCC1)c1nc(-c2ccccc2Cl)cs1 [Compound B8, (E)-4-(2-chlorophenyl)-2-[1-methyl-2-(2-cyclohexyloxyformylbenzylidene)hydrazino]thiazole]	> 50	–
CN(Cc1cnc2nc(N)nc(N)c2n1)c1ccc(C(=O)N[C@@H](CCC(=O)O)C(=O)O)cc1 [Methotrexate, reference compound]	–	degree of joint swelling ([2]; 0.3 mg/kg intraperitoneal, positive drug): significantly reduce the degree of joint swelling; gain of body weight ([2]; compared with model group): improve the condition of the rats and the slow gain of body weight

More lines, main results first:

IC50 [1, 3] [µM]	SMILES	other results
> 50	CCCCCOC(=O)c1ccccc1/C=N/N(C)c1nc(-c2ccccc2Cl)cs1 [Compound B6, (E)-4-(2-chlorophenyl)-2-[1-methyl-2-(2-pentyloxyformylbenzylidene)hydrazino]thiazole]	–
> 50	CN(/N=C/c1ccccc1C(=O)OCOC(=O)C(C)(C)C)c1nc(-c2ccccc2Cl)cs1 [Compound B10, (pivaloyloxy)methyl (E)-2-((2-(4-(2-chlorophenyl)thiazol-2-yl)-2-methylhydrazono)methyl)benzoate]	–
> 50	CC(C)OC(=O)OCOC(=O)c1ccccc1/C=N/N(C)c1nc(-c2ccccc2Cl)cs1 [Compound B11, ((isopropoxycarbonyl)oxy)methyl (E)-2-((2-(4-(2-chlorophenyl)thiazol-2-yl)-2-methylhydrazono)methyl)benzoate]	–
